According to paper PMC6560211, “ApoAI-derived peptide increases glucose tolerance and prevents formation of atherosclerosis in mice” (Diabetologia, 2019):
No end group written: not given here.

Columns and labels:
[1] = DMPC MLV lipid clearance (lipid binding); settings: compared with ApoA-I; 30 nmol/l DMPC, 1:100 molar ratio, 25°C, absorbance at 325 nm; n=5
Experimental: Turbid MLV solutions at 30 nmol/l DMPC were combined with PBS, RG54 or ApoA-I at a 1:100 molar ratio, and lipid binding at 25°C was measured by absorbance at 325 nm at the indicated times. Readings were fitted to one-way decay of non-linear regression.
Quantitative and qualitative lipid assays were applied to determine the lipid-binding properties of RG54. Solubilisation of MLVs made from DMPC phospholipids by RG54 peptide, or by recombinant ApoA-I protein as control, was assayed by light scattering (ESM Fig. 4a).
ESM Figure 4. Lipid clearance and peptide-lipid complex formation activity of RG54 compared with full-length ApoA-I.
DMPC clearance activity of RG54 was compared with ApoA-I. Turbid solutions of DMPC MLVs (30 nmol/l) were prepared in PBS as described in Methods and combined with PBS, RG54, or ApoA-I at a 1:100 molar ratio then lipid binding at 25°C was measured by absorbance at 325 nm at indicated times. (a) Readings were fitted to one-way decay of non-linear regression. (b) The lipid clearance rate is described as t1/2 values calculated from panel a, means ± SEM, n=5, *** p ≤ 0.001. Further, rHDL particles were prepared by incubating the MLVs with proteins or peptides in the molar ratios noted at 24°C for four days. Particle size distribution was analysed by DLS and frequency curves generated for ApoA-I (c) or RG54 (d). […]

DIO C57BL/6NTac mice = experiment: GTT in diet-induced obesity (DIO) mice; format: in vivo, mouse; settings: for insulin secretion in GTT: route comparison, n=6
Experimental: Male C57BL/6NTac mice (Taconic, Ejby, Denmark) at 8–9 weeks of age were acclimatised for 1 week on a normal chow diet, then changed to a high-fat diet for 2 weeks (diet-induced obesity; DIO), followed by GTT as indicated. Male Lepr^db (db/db) mice on a BKS background (Taconic) at 5 weeks of age were maintained on a normal chow diet and GTTs were performed at 5.5 and 14 weeks of age as indicated. Blood glucose levels were measured in fresh blood (C57: OneTouch Ultra2, Lifescan, Milpitas, CA, USA; db/db: GlucoSmart Swing, MSP bodmann, Bobingen, Germany) and insulin levels were assayed in serum using ELISA (Mercodia) at the times indicated in ESM Fig. 2. See ESM Methods for more details.
The effect of RG54 peptide on glucose disposal was investigated in an established insulin-resistant mouse model. DIO mice were fasted for 9 h followed by a single i.p. dose of RG54 (12 mg/kg), ApoA-I (14 mg/kg), liraglutide (0.1 mg/kg), or an equal volume of NaCl solution. After a further 3 h fasting period, GTTs were performed (Fig. 4a,b).
Fig. 4 Acute treatment with RG54 improves glucose tolerance during GTTs in three models of type 2 diabetes. Male C57Bl/6 mice fed a high-fat diet for 2 weeks (a–d) or db/db mice at 5.5 (e–h) or 14 (i–l) weeks old were fasted overnight, then treated with a single i.p. injection of NaCl (negative control, 200 μl; C57, n=12; db/db 5.5 weeks, n=6; db/db 14 weeks, n=6), liraglutide (0.1 mg/kg; C57, n=11; db/db 5.5 weeks, n=6; db/db 14 weeks, n=6), ApoA-I (14 mg/kg; C57, n=12; db/db 5.5 weeks, n=6; db/db 14 weeks, n=6) or RG54 (12 mg/kg; C57, n=12; db/db 5.5 weeks, n=6; db/db 14 weeks, n=5). After a further 3 h, mice received an i.p. glucose load (40 mg/mouse for C57; 50 mg/mouse for db/db) followed by blood and plasma collection at the indicated times, and blood glucose (a,e,i) and plasma insulin (b,f,j) concentrations were determined. Total AUC was calculated (mmol/l × min for glucose, pmol/l × min for insulin) and then normalised to the average value of the relevant NaCl control group to give relative AUC (% control) for glucose (c,g,k) and insulin (d,h,l). Values are means ± SEM. *p≤0.05, **p≤0.01, ***p≤0.001 vs NaCl control […]
We directly compared the i.p. and s.c. injection routes in DIO mice. DIO mice were fasted for 9 h, followed by a single i.p. or s.c. injection of RG54 (12 mg/kg), ApoA-I (14 mg/kg), or an equal volume of NaCl solution. After a further 3 h fasting and incubation period, GTTs were performed. […] Finally, we assessed the dose response of s.c. RG54 to find treatment concentrations with full or partial effects on glycaemic control as compared with our positive control (Fig. 6).
Male C57Bl/6 mice fed a high-fat diet for 2 weeks were fasted overnight, then treated with a single i.p. or s.c. injection of NaCl (negative control, 200 μl, n=6), ApoA-I (14 mg/kg, n=6) or RG54 (12 mg/kg, n=6). After a further 3 h, all mice received an i.p. glucose load (40 mg/mouse) followed by blood and plasma collection at the indicated times, and blood glucose (a,b) and plasma insulin (d,e) concentrations were determined for all injection routes. Total AUC was calculated (mmol/l × min for glucose, pmol/l × min for insulin) and then normalised to the average value of the relevant NaCl control group to give relative AUC (% control) for glucose (c) and insulin (f). Values are means ± SEM. ***p≤0.001 vs NaCl control […]
Male C57BL/6NTac mice were purchased from Taconic (Ejby, Denmark) at 8-9 weeks of age, acclimatised for one week on normal chow diet, then changed to a High-Fat Diet (HFD; Research Diets D12492, 60% fat content) for 2 weeks, followed by glucose tolerance testing (GTT) with timings as indicated (ESM Figure 2). Male Leprdb mice (db/db) on BKS background purchased from Taconic (BKS.Cg-m+/+Leprdb/BomTac, Ejby, Denmark) at 5 weeks of age were maintained on normal chow diet and GTTs were performed at 5.5 and 14 weeks of age with timings as indicated (ESM Figure 2). For the GTTs, mice fasted overnight […]

## Ac-AEYHAKATEHLSTLSEKAKPALEDLRQGLLPVLESFKVSFLSALEEYTKKLNTQ [RG54]
[1]
  initial rate of phospholipid binding: significantly lower
DIO C57BL/6NTac mice; DIO mice, 3 h treatment, i.p.
  fasting glucose levels: significantly lowered
  fasting insulin levels: no concomitant increase
  insulin sensitivity as measured by QUICKI: no change
DIO C57BL/6NTac mice; i.p. injection, RG54 12 mg/kg, ApoA-I 14 mg/kg
  insulin secretion in GTT: increased insulin secretion
DIO C57BL/6NTac mice; s.c. injection, 12 mg/kg
  insulin secretion in GTT: increased glucose clearance and insulin secretion
DIO C57BL/6NTac mice; single i.p. dose 12 mg/kg 3 h before GTT, vs NaCl, n=12
  levels of serum insulin in GTT: significantly increased
